Reference: patent publication US12599560B2, “Lipids and lipid nanoparticle formulations” (Longuide Biopharma Corporation, priority 2023, dated 2026)

How the values were obtained:
[1] = Particle size and PDI by dynamic light scattering; type: physicochemical
Outline: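 Lipid nanoparticle solution (about 0.04 mg/mL mRNA) diluted in ultrapure water and particle size measured by dynamic light scattering on a Malvern instrument. Sample then further diluted with water for potential measurement.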

[2] = tested on: Delta-S protein; test: In vivo immunization with Delta Spike mRNA LNP, serum ELISA for specific antibody; set-up: species or system mice; details: serum after second administration
Protocol: Lipid nanoparticles encapsulating the nucleic acid drugs were prepared according to step 2. The mRNA was replaced with Delta Spike full length mRNA (Shanghai Zhaowei Science and Technology Development Co., Ltd.) and then administered to the mice at a dose of 5 μg per mouse, and on the 14th day after the first immunization, the whole blood of the mice was collected by canthus sampling, and the drug administration was repeated for the second immunization. On the 14th day after the second immunization, the whole blood was collected from mice by canthus sampling. The whole blood was centrifuged at 5000 rcf for 5 mn, and the supernatant was centrifuged at 10000 rcf for 5 min to obtain the serum, which was aliquated into serial tubes and stored in the refrigerator at −20° C.
• 9.2.1 Coating: Add 100 μL of 0.2 μg/100 μL Delta-S protein (Novoprotein Scientific Inc.) dilution solution to each well, and leave it in the refrigerator at 4° C. overnight. • 9.2.2 Washing: Add 200 μL of PBST (PBS buffer solution containing 0.05% Tween-20 at pH 7.4) to each well and wash three times. • 9.2.3 Blocking: Add 200 μL of 5% (w/v) BSA-PBS solution (BSA bovine serum albumin, Bioss Biotechnology Co., Ltd.) to each well, and shake for 2 h at 50 rcf at room temperature using a shaker. • 9.2.4 Washing: Add 200 μL of PBST to each well to wash once. • 9.2.5 Adding samples: Add 100 μL of serum diluted 200 times with PBS (0.5 μL of serum) to each well (for the ELISA titer assay, serum diluted 200 times, 800 times, 3200 times, 12800 times, 51200 times, 204800 times), and shake at room temperature for 2 h at 50 rcf using a shaker. • 9.2.6 Washing: Add 200 μL of PBST into each well for three times. • 9.2.7 Adding detection antibody: Add 100 μL of HRP-labeled goat anti-mouse IgG detection antibody (0.1 μL of antibody master batch) (Sangon Biotech (Shanghai) Co., Ltd.) diluted 1000-fold into each well, and shake at 50 rcf for 1 h at room temperature using a shaker. • 9.2.8 Washing: Add 200 μL of PBST to each well and wash three times. • 9.2.9 Adding TMB (Beijing Solarbio Science & Technology Co., Ltd.): Add 50 μL of TMB mixture with the volume ratio of liquid A:liquid B of 1:1 to each well, and react for 5 mn (ELISA of blood sample I), 7 min 58 sec (ELISA of blood sample II), and react for about 5 min (ELISA titer of blood sample II). • 9.2.10 Adding phosphate (Aladdin Reagent (Shanghai) Co., Ltd.): add 50 μL of 1 mol/L phosphate per well to terminate the reaction. • 9.2.11 Detection: Use multi-function plate reader for detection. 9.3. Neutralization Antibody Levels Detected by Pseudovirus Neutralization Assay • 9.3.1 Cell seeding: 293T-ACE2 cells (Fubio (Suzhou) Biomedical Technology Co., Ltd.) were inoculated with 1×10^5 cells in each well of a 48-well plate at a concentration of 1×10^5 cells in 300 μL of DMEM medium (containing 10% heat-inactivated FBS without bispecific antibody), the 48-well plate was labeled with information such as “number, cell type, number of generations, medium type, date and name”, and then the cells were cultured in a cell culture incubator at 37° C. with 5% CO2 for 18 hours. • 9.3.2 Before the pseudovirus transfection operation, prepare an ice box, re-dissolve the serum to be used on ice, thaw on ice the virus from the −25° C. refrigerator. After thawing, the serum and pseudovirus were flicked homogenously and centrifuged with a palm centrifuge. • 9.3.3 Examine the neutralization antibody with serum diluted in different ratios: use complete culture medium to dilute the pseudovirus (Fubio (Suzhou) Biomedical Technology Co., Ltd.) and mouse serum respectively, mix them well, and then dilute them 40-fold, 100-fold, 250-fold and 625-fold according to the final concentration of the cells of incubation. […]

[3] = tested on: mice; test: In vivo delivery of FLuc-mRNA lipid nanoparticle preparations in mice (IVIS imaging); set-up: In vivo IVIS / In vivo IVIS (liver) / In vivo IVIS (spleen): unit not given here; details: for in vivo delivery efficiency as compared to the benchmark compound SM102: certain formulations
Outline: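 FLuc-mRNA LNPs given intramuscularly into thigh rectus femoris or intravenously via tail vein, about 75 μL per mouse, 3 mice. D-Luciferin (200 μL, 15 mg/mL) injected i.p. 10–15 min before IVIS imaging at set times after dosing.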

[4] = Table 4, molar ratio 1.40:11.15:38.95:48.50, N/P 40, IM formulation
[5] = Table 4, molar ratio 1.50:16.00:34.00:48.50, N/P 55, IV formulation
[6] = Table 2, IV, whole body scan, molar ratio DMG-PEG2000:DSPC:Chol:Lipid and N/P
[7] = Table 2, LNP formulation with mRNA

| SMILES | OD 450 nm-630 nm ([2]; IV) | In vivo IVIS ([3]; Table 2, IM, whole body scan) | In vivo IVIS [3, 6] | in vivo delivery efficiency as compared to the benchmark compound SM102 ([3]; Table 2) | Particle size (nm) [1, 7] | PDI ([1]; Table 2, polydispersity value) | OD 450 nm-630 nm ([2]; IM) | further results |
| --- | --- | --- | --- | --- | --- | --- | --- | --- |
| CCCCCCCCCCCCOC(=O)C(O)CN(CCN1CCN(CCN(CC(O)C(=O)OCCCCCCCCCCCC)CC(O)C(=O)OCCCCCCCCCCCC)CC1)CCN(CC(O)C(=O)OCCCCCCCCCCCC)CC(O)C(=O)OCCCCCCCCCCCC (stereo not drawn) [Compound L0199] | 1.52 | 2.19 × 10^7 | 1.07 × 10^9 | superior in vivo delivery efficiency | – | – | – | Particle size (nm) ([1]; Table 2, LNP formulation with mRNA, molar ratio 1.40:11.15:38.95:48.50, N/P 40): 97.65 ± 0.59 nm; Particle size (nm) ([1]; Table 2, LNP formulation with mRNA, molar ratio 2.50:7.00:42.00:48.50, N/P 55): 130.00 ± 1.47 nm; PDI ([1]; Table 2, polydispersity value, molar ratio 1.40:11.15:38.95:48.50, N/P 40): 0.11 ± 0.01; PDI ([1]; Table 2, polydispersity value, molar ratio 2.50:7.00:42.00:48.50, N/P 55): 0.12 ± 0.01; PDI [1, 4]: 0.09 ± 0.02; Particle size (nm) [1, 4]: 123.50 ± 0.36 nm; PDI [1, 5]: 0.10 ± 0.02; Particle size (nm) [1, 5]: 147.57 ± 1.17 nm; In vivo IVIS ([3]; Table 4, IM): 5.93 × 10^6; In vivo IVIS ([3]; Table 4, IV): 9.35 × 10^8 |
| CCCCCCOCOCCCCCCOC(=O)C(O)CN(CCN1CCN(CCN(CC(O)C(=O)OCCCCCCOCOCCCCCC)CC(O)C(=O)OCCCCCCOCOCCCCCC)CC1)CCN(CC(O)C(=O)OCCCCCCOCOCCCCCC)CC(O)C(=O)OCCCCCCOCOCCCCCC (stereo not drawn) [Compound L0200] | 1.61 | 3.08 × 10^5 | – | superior in vivo delivery efficiency | – | – | – | Particle size (nm) ([1]; Table 2, LNP formulation with mRNA, molar ratio 1.00:7.00:57.00:35.00, N/P 35): 106.93 ± 0.71 nm; Particle size (nm) ([1]; Table 2, LNP formulation with mRNA, molar ratio 1.40:11.15:38.95:48.50, N/P 65): 117.90 ± 0.36 nm; Particle size (nm) ([1]; Table 2, LNP formulation with mRNA, molar ratio 2.00:16.00:22.00:60.00, N/P 35): 104.50 ± 0.26 nm; PDI ([1]; Table 2, polydispersity value, molar ratio 1.00:7.00:57.00:35.00, N/P 35): 0.06 ± 0.01; PDI ([1]; Table 2, polydispersity value, molar ratio 1.40:11.15:38.95:48.50, N/P 65): 0.08 ± 0.02; PDI ([1]; Table 2, polydispersity value, molar ratio 2.00:16.00:22.00:60.00, N/P 35): 0.12 ± 0.01 |
| CCCCCCC(CCCCCC)C(=O)OCCCCCCOC(=O)C(O)CN(CCN1CCN(CCN(CC(O)C(=O)OCCCCCCOC(=O)C(CCCCCC)CCCCCC)CC(O)C(=O)OCCCCCCOC(=O)C(CCCCCC)CCCCCC)CC1)CCN(CC(O)C(=O)OCCCCCCOC(=O)C(CCCCCC)CCCCCC)CC(O)C(=O)OCCCCCCOC(=O)C(CCCCCC)CCCCCC (stereo not drawn) [Compound L0203] | – | 8.01 × 10^7 | 3.89 × 10^8 | superior in vivo delivery efficiency | 126.73 ± 1.50 nm | 0.06 ± 0.01 | 1.72 | – |
| CCCCCCCCCCCOC(=O)CCCCCN(CCO)CCCCCCCC(=O)OC(CCCCCCCC)CCCCCCCC [SM-102, reference compound] | – | – | 1.40 × 10^9 | – | 81.71 ± 0.49 nm | 0.11 ± 0.01 | 1.64 | – |
